Measured values as given in the NIST ThermoML archive (doi:10.1016/j.jct.2009.06.020).
Numbers after ± are expanded uncertainties.

Columns and labels:
[1] = isobaric coefficient of expansion; conditions: 298.15 K; 101.33 kPa; Liquid; Curve Fitting Density Data
[2] = for speed of sound / mass density / viscosity: 101.33 kPa, Liquid; for speed of sound: Single path-length method; for mass density: Vibrating tube method; for viscosity: Capillary tube (Ostwald / Ubbelohde) method
[3] = refractive index (Na D-line) (dimensionless); conditions: 101.33 kPa, Liquid, Standard Abbe refractometry

CCCCCCCCCCCCCC[P+](CCCCCC)(CCCCCC)CCCCCC.N#C[N-]C#N [tetradecyl(trihexyl)phosphonium dicyanamide]
Conditions | isobaric coefficient of expansion
[1] | 0.000642 1/K

Conditions | mass density, [2] [kg/m3] | refractive index, [3] | speed of sound, [2] [m/s] | viscosity, [2] [mPa·s]
278.15 K | 910.72 ± 3.6 | – | 1599 ± 3 | –
283.15 K | 907.58 ± 3.6 | 1.48826 ± 0.00037 | 1579 ± 3 | –
288.15 K | 904.66 ± 3.6 | 1.48667 ± 0.00037 | 1561 ± 3 | –
293.15 K | 901.76 ± 3.6 | 1.48502 ± 0.00037 | 1542 ± 3 | 562.45 ± 31
298.15 K | 898.86 ± 3.6 | 1.48337 ± 0.00037 | 1526 ± 3 | 418.33 ± 22
303.15 K | 895.98 ± 3.6 | 1.48174 ± 0.00037 | 1509 ± 3 | 312.69 ± 16
308.15 K | 893.09 ± 3.6 | 1.48008 ± 0.00037 | 1493 ± 3 | 239.97 ± 11
313.15 K | 890.26 ± 3.6 | 1.47843 ± 0.00037 | 1477 ± 3 | 186.79 ± 8.5
318.15 K | 887.46 ± 3.6 | 1.47679 ± 0.00037 | 1462 ± 3 | 145.95 ± 6.4
323.15 K | 884.65 ± 3.5 | 1.47516 ± 0.00037 | 1447 ± 3 | 116.18 ± 5
328.15 K | 881.83 ± 3.5 | 1.47352 ± 0.00037 | 1432 ± 3 | 93.8 ± 3.9
333.15 K | 879.03 ± 3.5 | 1.47189 ± 0.00037 | 1418 ± 3 | 76.14 ± 3.1
338.15 K | 876.22 ± 3.5 | 1.47024 ± 0.00037 | 1404 ± 3 | 62.63 ± 2.6
343.15 K | 873.42 ± 3.5 | 1.46848 ± 0.00037 | 1390 ± 3 | 51.99 ± 2.1

CCCC[N+]1(C)CCCC1.O=S(=O)([N-]S(=O)(=O)C(F)(F)F)C(F)(F)F
Conditions | isobaric coefficient of expansion
[1] | 0.000633 1/K

Conditions | mass density, [2] [kg/m3] | refractive index, [3] | speed of sound, [2] [m/s] | viscosity, [2] [mPa·s]
278.15 K | 1412.36 ± 5.7 | – | 1316 ± 3 | –
283.15 K | 1407.86 ± 5.7 | 1.42717 ± 0.00037 | 1303 ± 3 | –
288.15 K | 1403.45 ± 5.6 | 1.42573 ± 0.00037 | 1291 ± 3 | –
293.15 K | 1399.02 ± 5.6 | 1.4243 ± 0.00037 | 1280 ± 3 | 98.07 ± 4.1
298.15 K | 1394.59 ± 5.6 | 1.42304 ± 0.00037 | 1269 ± 3 | 76.92 ± 3.2
303.15 K | 1390.2 ± 5.6 | 1.42164 ± 0.00037 | 1258 ± 3 | 61.47 ± 2.5
308.15 K | 1385.8 ± 5.6 | 1.42021 ± 0.00037 | 1247 ± 3 | 49.94 ± 2
313.15 K | 1381.42 ± 5.5 | 1.41878 ± 0.00037 | 1236 ± 3 | 41.22 ± 1.7
318.15 K | 1377.04 ± 5.5 | 1.41736 ± 0.00037 | 1225 ± 3 | 34.32 ± 1.4
323.15 K | 1372.69 ± 5.5 | 1.41588 ± 0.00037 | 1214 ± 3 | 28.95 ± 1.2
328.15 K | 1368.35 ± 5.5 | 1.41447 ± 0.00037 | 1204 ± 3 | 24.68 ± 1
333.15 K | 1364.02 ± 5.5 | 1.413 ± 0.00037 | 1193 ± 3 | 21.23 ± 0.86
338.15 K | 1359.71 ± 5.5 | 1.4116 ± 0.00037 | 1183 ± 3 | 18.42 ± 0.75
343.15 K | 1355.41 ± 5.4 | 1.4102 ± 0.00037 | 1173 ± 3 | 16.12 ± 0.65

Conditions | Normal melting temperature [°C]
[2], Crystal, visual observation | -8.00 ± 0.5
